In patent US7253155B2, “Combinations for the treatment of immunoinflammatory disorders” (CombinatoRx, Inc., priority 2001, dated 2007):
“And” between values parts separate entries of the source, which are not always exact repeats. Equal entries are not always repeated.

Test system: TNFα secretion
Test: TNFα ELISA assay for TNFα suppressing activity in PMA/ionomycin-stimulated human white blood cells (pairwise combination dilution matrix)
Assay type: cell-based
Protocol: Stock solutions at 16 mg/ml of dipyridamole, and 1.6 mg/ml of fludrocortisone acetate (Sigma-Aldrich, St. Louis, Mo.; catalog numbers D9766 and F6127, respectively) were made in dimethylsulfoxide (DMSO). The dipyridamole master plates were made by adding 25 μl of the concentrated stock solution to columns 3, 9, and 15 (rows C through N) of a polypropylene 384-well storage plate that had been pre-filled with 75 μl of anhydrous DMSO. Using a TomTec Quadra Plus liquid handler, the 25 μl of dipyridamole stock solution was serially diluted four times into the adjacent columns (columns 4-7, 10-13, 16-19). […] The fludrocortisone master plates were made by adding 25 μl of the concentrated stock solution to the appropriate wells (row C, columns 3-8; row C, columns 9-14; row C, columns 15-20; row I, columns 3-8; row I, columns 9-14; row I, columns 15-20) of the appropriate master polypropylene 384-well storage plate. These master plates had been pre-filled with 75 μl of anhydrous DMSO. Using the TomTec Quadra Plus liquid handler, the 25 μl was serially diluted four times in the adjacent rows (rows D-G, and J-M). […] Master plates were sealed and stored at −20 C. until ready for use.
The final dipyridamole/fludrocortisone combination plates were generated by transferring 1 μl from each of the dipyridamole and fludrocortisone master plates to a dilution plate containing 100 μl of media (RPMI; Gibco BRL, #11875-085), 10% Fetal Bovine Serum (Gibco BRL, #25140-097), 2% Penicillin/Streptomycin (Gibco BRL, #15140-122)) using the TomTec Quadra Plus liquid handler. This dilution plate was then mixed and a 10 μl aliquot transferred to the final assay plate, which had been pre-filled with 40 μl/well RPMI media containing the appropriate stimulant to activate TNFα secretion (see below).
The compound dilution matrix was assayed using a TNFα ELISA method. Briefly, a 100 μl suspension of diluted human white blood cells contained within each well of a polystyrene 384-well plate (NalgeNunc) was stimulated to secrete TNFα by treatment with a final concentration of 10 ng/ml phorbol 12-myristate 13-acetate (Sigma) and […] ionomycin (Sigma). Various concentrations of each test compound were added at the time of stimulation. After 16-18 hours of incubation at 37° C. in a humidified incubator, the plate was centrifuged and the supernatant transferred to a white opaque polystyrene 384 well plate (NalgeNunc, Maxisorb) coated with an anti-TNF antibody (PharMingen, #18631D). After a two-hour incubation, the plate was washed (Tecan PowerWasher 384) with phosphate buffered saline (PBS) containing 0.1% Tween 20 (polyoxyethylene sorbitan monolaurate) and incubated for an additional one hour with another anti-TNF antibody that was biotin labeled (PharMingen, 18642D) and horseradish peroxidase (HRP) coupled to strepavidin (PharMingen, #13047E). After the plate was washed with 0.1% Tween 20/PBS, the HRP substrate (which contains luminol, hydrogen peroxide, and an enhancer such as para-iodophenol) was added to each well and light intensity measured using a LJL Analyst luminometer. Control wells contained a final concentration of 1 μg/ml cyclosporin A (Sigma).
A compound matrix of dipyridamole and prednisolone were prepared according to the method of Example 1. The initial stock solution of dipyridamole was 16 mg/ml, and prednisolone was 1.6 mg/ml.
The compound dilution matrix of Example 3, was assayed using the TNFα ELISA method of Example 2.

For `OCCN(CCO)c1nc(N2CCCCC2)c2nc(N(CCO)CCO)nc(N3CCCCC3)c2n1` [Dipyridamole, 2,6-bis(diethanolamino)-4,8-dipiperidinopyrimido(5,4-d)pyrimidine], the “% TNFα suppression from P/I-induced white blood cells” value (primary screen, fludrocortisone 0.000 μM, dipyridamole 0.031 μM) was 3.68%, the “% TNFα suppression from P/I-induced white blood cells” value (primary screen, fludrocortisone 0.000 μM, dipyridamole 0.124 μM) was 9.08% and the “% TNFα suppression from P/I-induced white blood cells” value (primary screen, fludrocortisone 0.000 μM, dipyridamole 0.495 μM) was 13.21%. For the same compound, the “% TNFα suppression from P/I-induced white blood cells” value (primary screen, fludrocortisone 0.000 μM, dipyridamole 1.982 μM) was 35.24%, the “% TNFα suppression from P/I-induced white blood cells” value (primary screen, fludrocortisone 0.000 μM, dipyridamole 7.927 μM) was 66.37% and the “% TNFα suppression from P/I-induced white blood cells” value (primary screen, prednisolone 0.000 μM, dipyridamole 0.031 μM) was 11.24%. For the same compound, the “% TNFα suppression from P/I-induced white blood cells” value (primary screen, prednisolone 0.000 μM, dipyridamole 0.12 μM) was 12.63%, the “% TNFα suppression from P/I-induced white blood cells” value (primary screen, prednisolone 0.000 μM, dipyridamole 0.50 μM) was 18.30% and the “% TNFα suppression from P/I-induced white blood cells” value (primary screen, prednisolone 0.000 μM, dipyridamole 1.98 μM) was 27.21%. The “% TNFα suppression from P/I-induced white blood cells” value (primary screen, prednisolone 0.000 μM, dipyridamole 7.93 μM) was 47.51%, the “% TNFα suppression from P/I-induced white blood cells” value (secondary screen, fludrocortisone 0.000 μM, dipyridamole 0.031 μM) was 10.16% and the “% TNFα suppression from P/I-induced white blood cells” value (secondary screen, fludrocortisone 0.000 μM, dipyridamole 0.062 μM) was 9.43%. The “% TNFα suppression from P/I-induced white blood cells” value (secondary screen, fludrocortisone 0.000 μM, dipyridamole 0.124 μM) was 12.13%, the “% TNFα suppression from P/I-induced white blood cells” value (secondary screen, fludrocortisone 0.000 μM, dipyridamole 0.248 μM) was 23.02% and the “% TNFα suppression from P/I-induced white blood cells” value (secondary screen, fludrocortisone 0.000 μM, dipyridamole 0.495 μM) was 33.73%. The “% TNFα suppression from P/I-induced white blood cells” value (secondary screen, fludrocortisone 0.000 μM, dipyridamole 0.991 μM) was 48.20%, the “% TNFα suppression from P/I-induced white blood cells” value (secondary screen, fludrocortisone 0.000 μM, dipyridamole 1.982 μM) was 62.36% and the “% TNFα suppression from P/I-induced white blood cells” value (secondary screen, fludrocortisone 0.000 μM, dipyridamole 3.964 μM) was 66.54%. The “% TNFα suppression from P/I-induced white blood cells” value (secondary screen, fludrocortisone 0.000 μM, dipyridamole 7.927 μM) was 78.11%.

`C[C@]12C=CC(=O)C=C1CC[C@@H]1[C@@H]2[C@@H](O)C[C@@]2(C)[C@H]1CC[C@]2(O)C(=O)CO` [Prednisolone, 11beta,17alpha,21-trihydroxy-1,4-pregnadiene-3,20-dione] was tested, and the “% TNFα suppression from P/I-induced white blood cells” value (primary screen, prednisolone 0.001 μM, dipyridamole 0.00 μM) was 4.86%, the “% TNFα suppression from P/I-induced white blood cells” value (primary screen, prednisolone 0.004 μM, dipyridamole 0.00 μM) was 19.99% and the “% TNFα suppression from P/I-induced white blood cells” value (primary screen, prednisolone 0.016 μM, dipyridamole 0.00 μM) was 37.84%. For the same compound, the “% TNFα suppression from P/I-induced white blood cells” value (primary screen, prednisolone 0.063 μM, dipyridamole 0.00 μM) was 33.00% and the “% TNFα suppression from P/I-induced white blood cells” value (primary screen, prednisolone 0.250 μM, dipyridamole 0.00 μM) was 38% and 38.25%.
